# US20240092835A1, “NOVEL PEPTIDES CAPABLE OF ALTERING NK CELL ACTIVITY” (Massachusetts Institute of Technology, priority 2022, published 2024)
# Where no end group is shown, it is not given here.
# Experiments:
# [1] = biological target: CD94/NKG2A (Homo sapiens, UniProt P26715+Q13241); assay: Steady-state surface plasmon resonance of peptide-HLA-E complex with CD94/NKG2A; format: binding; settings: for Binding of peptide-HLA-E complexes to CD94/NKG2A normalized to a theoretical Rmax: steady-state SPR
# CD94/NKG2A, sequence (P26715 94-233 limits assumed): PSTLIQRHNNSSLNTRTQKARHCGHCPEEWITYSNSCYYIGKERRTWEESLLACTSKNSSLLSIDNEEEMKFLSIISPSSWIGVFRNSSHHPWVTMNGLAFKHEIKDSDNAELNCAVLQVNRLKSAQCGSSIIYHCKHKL
# CD94/NKG2A, sequence (Q13241 32-179 limits assumed): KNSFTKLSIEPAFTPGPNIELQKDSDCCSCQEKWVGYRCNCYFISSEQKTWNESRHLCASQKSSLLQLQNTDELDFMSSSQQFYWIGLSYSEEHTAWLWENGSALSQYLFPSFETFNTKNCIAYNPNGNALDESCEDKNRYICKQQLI
# Protocol: Binding affinity of novel peptides linked to HLA-E was determined using surface plasmon resonance (SPR), a methodology used to study protein-protein interactions (Tables 15-19). The peptide-HLA-E complex (generated as a single chain trimer) was immobilized on the sensor chip surface and CD94/NKG2A or CD94/NKG2C were flowed over. Steady-state surface plasmon resonance experiments were performed with a Biacore T200 instrument. CD94/NKG2x in HBS-EP+ buffer was injected as analyte in a concentration range of 0.1 μM to 102.4 μM and flow rate of 10 μL/min at 25° C. Data was fit with Prism 9.4 (GraphPad Software Inc; San Diego CA) to a “one site, specific binding” model. Series S CM5 chips were coupled to neutravidin and utilized. Biotinylated pMHC was immobilized at approximately 400 RU. KD values calculated by Biacore software are reported. Rmax, fit values were calculated by Biacore software. Rmax, theoretical values were calculated using the analyte/ligand mass ratio (0.66) multiplied by the amount of ligand coupled to the chip.
# [2] = biological target: T1, HLA-E (Homo sapiens, UniProt P13747); assay: HLA-E surface stabilization assay with RMA-S/HLA-E cells; format: cell-based; settings: 30 μM peptide, 16 hours; for HLA-E surface expression stability (GeoMFI): anti-HLA-E antibody
# T1 construct: expressed in transfected cells; host or cells: RMA-S/HLA-E cells (antigen processing-defective lymphoma cell line)
# T1 sequence (P13747 22-358): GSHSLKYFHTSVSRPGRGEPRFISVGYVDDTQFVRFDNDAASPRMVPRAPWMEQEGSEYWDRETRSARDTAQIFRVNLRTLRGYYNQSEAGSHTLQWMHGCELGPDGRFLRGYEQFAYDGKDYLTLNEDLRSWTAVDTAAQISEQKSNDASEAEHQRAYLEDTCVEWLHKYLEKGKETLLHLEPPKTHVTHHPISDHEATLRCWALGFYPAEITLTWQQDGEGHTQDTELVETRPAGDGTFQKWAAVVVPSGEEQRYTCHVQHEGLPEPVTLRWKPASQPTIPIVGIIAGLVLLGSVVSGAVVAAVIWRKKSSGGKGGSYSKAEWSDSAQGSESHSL
# T1 sequence (P61769 21-119 partner): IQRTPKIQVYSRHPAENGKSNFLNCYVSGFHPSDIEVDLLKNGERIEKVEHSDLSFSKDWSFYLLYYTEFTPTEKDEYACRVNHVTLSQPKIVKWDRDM
# Protocol: HLA-E surface expression was assessed by measuring geometric mean fluorescence intensity (GeoMFI) in RMA-S cells following immunofluorescence staining with an anti-HLA-E antibody (Table 14). Increased GeoMFI was indicative of increased HLA-E surface expression stability following novel peptide exposures (FIG. 3).
sequence,measurement,setting,value
"TLPKRGLFL [human2, TLPKRGLFL]",binding of peptide-HLA-E complex to CD94/NKG2A normalized to a fitted Rmax,[1]; CD94/NKG2A concentration 0 μM,−0.007
same,binding of peptide-HLA-E complex to CD94/NKG2A normalized to a fitted Rmax,[1]; CD94/NKG2A concentration 0.1 μM,0.023
same,binding of peptide-HLA-E complex to CD94/NKG2A normalized to a fitted Rmax,[1]; CD94/NKG2A concentration 0.2 μM,0.046
same,binding of peptide-HLA-E complex to CD94/NKG2A normalized to a fitted Rmax,[1]; CD94/NKG2A concentration 0.4 μM,0.094
same,binding of peptide-HLA-E complex to CD94/NKG2A normalized to a fitted Rmax,[1]; CD94/NKG2A concentration 0.8 μM,0.173
same,binding of peptide-HLA-E complex to CD94/NKG2A normalized to a fitted Rmax,[1]; CD94/NKG2A concentration 1.6 μM,0.293
same,binding of peptide-HLA-E complex to CD94/NKG2A normalized to a fitted Rmax,[1]; CD94/NKG2A concentration 3.2 μM,0.450
same,binding of peptide-HLA-E complex to CD94/NKG2A normalized to a fitted Rmax,[1]; CD94/NKG2A concentration 6.4 μM,0.618
same,binding of peptide-HLA-E complex to CD94/NKG2A normalized to a fitted Rmax,[1]; CD94/NKG2A concentration 12.8 μM,0.766
same,binding of peptide-HLA-E complex to CD94/NKG2A normalized to a fitted Rmax,[1]; CD94/NKG2A concentration 25.6 μM,0.873
same,binding of peptide-HLA-E complex to CD94/NKG2A normalized to a fitted Rmax,[1]; CD94/NKG2A concentration 51.2 μM,0.942
same,binding of peptide-HLA-E complex to CD94/NKG2A normalized to a fitted Rmax,[1]; CD94/NKG2A concentration 102.4 μM,0.954
same,Binding of peptide-HLA-E complexes to CD94/NKG2A normalized to a theoretical Rmax,[1]; CD94/NKG2A analyte concentration 0.000 μM,−0.005
same,Binding of peptide-HLA-E complexes to CD94/NKG2A normalized to a theoretical Rmax,[1]; CD94/NKG2A analyte concentration 0.100 μM,0.017
same,Binding of peptide-HLA-E complexes to CD94/NKG2A normalized to a theoretical Rmax,[1]; CD94/NKG2A analyte concentration 0.200 μM,0.034
same,Binding of peptide-HLA-E complexes to CD94/NKG2A normalized to a theoretical Rmax,[1]; CD94/NKG2A analyte concentration 0.400 μM,0.070
same,Binding of peptide-HLA-E complexes to CD94/NKG2A normalized to a theoretical Rmax,[1]; CD94/NKG2A analyte concentration 0.800 μM,0.131
same,Binding of peptide-HLA-E complexes to CD94/NKG2A normalized to a theoretical Rmax,[1]; CD94/NKG2A analyte concentration 1.600 μM,0.221
same,Binding of peptide-HLA-E complexes to CD94/NKG2A normalized to a theoretical Rmax,[1]; CD94/NKG2A analyte concentration 3.200 μM,0.339
same,Binding of peptide-HLA-E complexes to CD94/NKG2A normalized to a theoretical Rmax,[1]; CD94/NKG2A analyte concentration 6.400 μM,0.465
same,Binding of peptide-HLA-E complexes to CD94/NKG2A normalized to a theoretical Rmax,[1]; CD94/NKG2A analyte concentration 12.800 μM,0.577
same,Binding of peptide-HLA-E complexes to CD94/NKG2A normalized to a theoretical Rmax,[1]; CD94/NKG2A analyte concentration 25.600 μM,0.657
same,Binding of peptide-HLA-E complexes to CD94/NKG2A normalized to a theoretical Rmax,[1]; CD94/NKG2A analyte concentration 51.200 μM,0.709
same,Binding of peptide-HLA-E complexes to CD94/NKG2A normalized to a theoretical Rmax,[1]; CD94/NKG2A analyte concentration 102.400 μM,0.718
same,HLA-E surface expression stabilization strength (in words),[2],moderate
same,HLA-E surface expression stability (GeoMFI),[2]; Trial 1,2019 GeoMFI
same,HLA-E surface expression stability (GeoMFI),[2]; Trial 2,2029 GeoMFI
same,HLA-E surface expression stability (GeoMFI),[2]; Trial 3,1731 GeoMFI
same,HLA-E surface expression stability (GeoMFI),[2]; Trial 4,2795 GeoMFI
same,"HLA-E surface expression stabilization strength, approximate GeoMFI",[2]; approximate value,approximately 2×10^3 GeoMFI
